Assay results reported in publication PMC6017062, “Probing the Inhibitor versus Chaperone Properties of sp^2-Iminosugars towards Human β-Glucocerebrosidase: A Picomolar Chaperone for Gaucher Disease” (Molecules : A Journal of Synthetic Chemistry and Natural …, 2018).
Positions count from the first letter of the chain named. Like-named read-outs stand apart in the source and are kept apart here.

Columns and labels:
L444P mutant GCase [1] = tested on: L444P mutant GCase; set-up: method as in PMID 22512696; details: homozygous L444P Gaucher lymphoblasts; cited from earlier work
N188S/G183W mutant GCase = target: T1, N188S/G183W mutant GCase (Homo sapiens, UniProt P04062, N227S); test: Chaperone test in N188S/G183W type 3 Gaucher patient fibroblasts; type: cell-based; details: N188S/G183W Gaucher fibroblasts
T1 construct: endogenous in cells; host or cells: skin fibroblasts of N188S/G183W type 3 Gaucher patients
T1 sequence (P04062 40-536 N227S): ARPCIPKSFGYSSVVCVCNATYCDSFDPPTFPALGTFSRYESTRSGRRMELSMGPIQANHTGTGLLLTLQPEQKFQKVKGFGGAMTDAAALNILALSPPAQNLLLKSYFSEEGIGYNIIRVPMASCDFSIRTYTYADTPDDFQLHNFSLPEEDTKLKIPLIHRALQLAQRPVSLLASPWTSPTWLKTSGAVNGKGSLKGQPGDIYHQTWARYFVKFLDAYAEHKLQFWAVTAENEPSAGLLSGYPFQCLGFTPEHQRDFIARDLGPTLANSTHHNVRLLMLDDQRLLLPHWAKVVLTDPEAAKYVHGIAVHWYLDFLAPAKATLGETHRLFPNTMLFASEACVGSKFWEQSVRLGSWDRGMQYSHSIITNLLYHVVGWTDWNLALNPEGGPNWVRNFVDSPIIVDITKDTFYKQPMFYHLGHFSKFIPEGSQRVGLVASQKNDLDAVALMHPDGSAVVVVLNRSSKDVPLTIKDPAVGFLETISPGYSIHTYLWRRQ
Description: To test the chaperoning capabilities, Gaucher fibroblasts from patients hosting the adult neuronopathic (type 3) Gaucher disease-associated N188S/G183W mutant GCase were employed. It is worth mentioning that the neuronopathic clinical subtypes of Gaucher disease remain currently at orphan status, given the inability of the recombinant enzyme used in enzyme replacement therapy or the glucosylceramide synthase inhibitor Zavesca® used in substrate reduction therapy to cross the blood–brain barrier. This mutation is located in the catalytic domain (domain III) of GCase and has been previously found to be responsive to sp^2-iminosugar-type chaperones. […] Yet, the activity trend as a function of the chaperone concentration was starkly different between them. Thus, the nonreducing representatives 3 and 4 reached the maximum chaperoning effect at 200 nM and as low as 2 nM concentration, respectively, as compared with 20 and 2 μM for the reducing homologues 1 and 2.
(§1) Normal and Gaucher disease patients’ skin fibroblasts were cultured in Dulbecco modified Eagle’s medium (WAKO, Richmond, VA, USA) supplemented with 10% fetal bovine serum (Nichirei Biosci. Inc., Tokyo, Japan) at 37 °C in 5% CO2. For measurement of chaperone activities, fibroblasts were plated onto 35 mm dishes at 50,000 cells per dish. After 24 h incubation, the medium with the indicated concentrations of compound was applied and cells were cultured for 96 h. Then, the lysates in 0.1% Triton-X100/distilled H2O were collected from the cells and assayed for lysosomal GCase as described above. To measure the cytotoxic effect of the compounds, normal human fibroblasts were plated onto 35 mm dishes at 15,000 cells per dish and incubated overnight. Then, the medium was changed with or without compounds. After 24 h incubation, the supernatant of the cells was collected and measured by the lactate dehydrogenase assay (WAKO, Richmond, VA, USA). All the cell lines used were tested for mycoplasma contamination before conducting the chaperone and toxicity assays.

[2] = target: T2, human β-glucocerebrosidase (GCase) (Homo sapiens, UniProt P04062, R534H); test: Purified recombinant human GCase inhibition in vitro; type: biochemical; details: for Ki: purified recombinant enzyme (Cerezyme), 4-MU glucopyranoside substrate
T2 construct: purchased Genzyme (Genzyme Japan, Tokyo, Japan) / Sanofi Genzyme, Cambridge, MA, USA Cerezyme
T2 sequence (P04062 40-536 R534H): T1 sequence (P04062 40-536 N227S) with S188N, R495H
Experimental: Comparative assessment of the inhibition abilities of 1–4 against human lysosomal glycosidases in cell lysates (in vitro enzyme assay; see Experimental Section) confirmed the selectivity pattern previously observed for the commercial enzymes: whereas GCase was responsive to μM concentrations of the sp^2-iminosugars, the activity of lysosomal α-glucosidase, α- and β-galactosidases, α- and β-mannosidases, and hexosaminidase was not affected at concentrations of up to 200 μM. The corresponding Ki values were determined at pH 7 and 5 using purified recombinant human GCase and 4-methylumbelliferone (4-MU)-conjugated […] as the substrate (Table 2).
GCase activities were determined as above using purified human GCase, obtained from Genzyme (Genzyme Japan, Tokyo, Japan) in 0.1 M citrate buffer at pH 5 or pH 7 and 4-methylumbelliferone (4-MU)-conjugated β-D-glucopyranoside as the substrate. The reactions were terminated by adding 0.2 mL of 0.2 M glycine sodium hydroxide buffer (pH 10.7). The liberated 4-methylumbelliferone was measured in a black-well plate with a Perkin Elmer Luminescence Spectrometer, Waltham, MA, USA (excitation wavelength: 340 nm; emission: 460 nm).

pKa determination = type: physicochemical
GCase = target: T3, GCase (Homo sapiens, UniProt P04062); test: GCase activity in cultured healthy human fibroblasts; type: cell-based; details: 5 days culture
T3 construct: endogenous in cells; host or cells: normal human skin fibroblasts
T3 sequence (P04062 40-536): T1 sequence (P04062 40-536 N227S) with S188N
Experimental: For that purpose, cells were cultured for 5 days in the absence and in the presence of various concentrations of the compounds, then lysed, and the enzyme activity was determined using 4-methylumbelliferyl β-D-glucopyranoside as substrate. Higher GCase activities in the lysate indicate that larger amounts of the protein are present and that it is functional.
as §1

L444P mutant GCase [3] = details: homozygous L444P Gaucher fibroblasts; cited from earlier work
[4] = pH 5, read-out: Ki human GCase, pH 5
[5] = pH 7, read-out: Ki human GCase, pH 7

concentration of maximum chaperoning effect (N188S/G183W mutant GCase) [µM]	Ki [2, 4] [µM]	Ki [2, 5] [µM]	pKa (pKa determination)	GCase activity in healthy human fibroblasts over the whole range of concentrations (GCase)	Structure (SMILES)	also measured
					CCCCCCCCCN[C@H]1[C@H](O)[C@@H](O)[C@H](O)[C@@H](O)[C@@H]1OCCCCCCCCC [Compound 19, (1R,2S,3R,4S,5S,6R)-5-(nonylamino)-6-(nonyloxy)cyclohexane-1,2,3,4-tetraol]	mutant GCase activity enhancement at 10 pM (L444P mutant GCase [1]): 40%
0.2	6.3 ± 0.16	1.7 ± 0.066	9.3		CCCCCCCC/N=C1/OC[C@@H]2[C@@H](O)[C@H](O)[C@@H](O)CN12 [Compound 3]	concentration over which chaperone/inhibitor balance is unfavorable (net decrease in mutant enzyme activity vs control) (N188S/G183W mutant GCase): over 20 μM; fold stronger GCase inhibition of nonreducing vs reducing partner ([2]; 3 vs 1, 4 vs 2): about 10 fold; GCase activity in lysates of healthy human fibroblasts at 20 μM (GCase; 20 μM): virtually full inhibition; GCase activity in lysates of healthy human fibroblasts at higher concentrations (GCase; concentrations higher than 20 nM): significantly inhibited
					CCCCCCCCCC(=O)OC[C@H](C[C@H]1NC[C@@H](O)[C@H](O)[C@H]1O)OC(=O)CCCCCCCCC [Compound 23]	mutant GCase activity enhancement at 50 nM (L444P mutant GCase [3]): 100%
2	1.05 ± 0.068	0.26 ± 0.013	8.3	essentially unaltered	CCCCCCCCN=C1SCC2C(O)C(O)C(O)C(O)N12 (stereo not shown) [Compound 2]	fold enhancement of GCase inhibition potency upon replacement of O-6 by sulfur, pH 5 ([2]; pH 5, 2 vs 1, 4 vs 3): 52 fold; fold enhancement of GCase inhibition potency upon replacement of O-6 by sulfur, pH 7 ([2]; pH 7, 2 vs 1, 4 vs 3): 58 fold
20	54.4 ± 0.38	15.1 ± 0.97	8.9	essentially unaltered	CCCCCCCCN=C1OCC2C(O)C(O)C(O)C(O)N12 (stereo not shown) [Compound 1]	
